Laboratory results from patent publication US20070093513A1, “Agent for repairing corneal perception” (SENJU PHARMACEUTICAL CO., LTD., priority 2003, published 2007).
Structures can show the parent of a compound that is named as a salt.

Legend:
[1] = system: cultured rabbit trigeminal nerve cells; experiment: Neurite outgrowth promoting effect in cultured rabbit trigeminal nerve cells (Experimental Example 2); format: cell-based, Japanese White Rabbits; conditions: cultured for 48 hrs, non-addition group about 31%
From the text: Japanese White Rabbits (2-3 days old) purchased from KITAYAMA LABES Co., Ltd. were used.
As a ROCK inhibitor, 2-chloro-6,7-dimethoxy-N-[5-1H-indazolyl]quinazoline-4-amine, N-(1-benzyl-4-piperidinyl)-1H-indazole-5-amine dihydrochloride, 4-[2-(2,3,4,5,6-pentafluorophenyl)acryloyl]cinnamic acid and fasudil hydrochloride were used.
2-Chloro-6,7-dimethoxy-N-[5-1H-indazolyl]quinazoline-4-amine (hereinafter to be indicated as compound 1) used was synthesized according to Reference Example 1. N-(1-benzyl-4-piperidinyl)-1H-indazole-5-amine dihydrochloride.½ hydrate (hereinafter to be indicated as compound 2) used was synthesized according to Reference Example 2. 4-[2-(2,3,4,5,6-Pentafluorophenyl)acryloyl]cinnamic acid (hereinafter to be indicated as compound 3) used was synthesized according to Reference Example 3. Fasudil hydrochloride (hereinafter to be indicated as compound 4) used was a commercially available fasudil hydrochloride hydrate injection, “Eril Injection 30 mg” (manufactured by Asahi Kasei Corporation).
Rabbit trigeminal nerve cells were isolated in the same manner as in Experimental Example 1. For cell culture, a culture medium obtained by adding B27 Supplement (manufactured by GIBCO; final concentration 2% v/v) and L-glutamine (manufactured by GIBCO; concentration 1 mM) to neurobasal culture medium (manufactured by GIBCO) was used. A circular cover glass (diameter 12 mm; manufactured by SUMITOMO BAKELITE) after polylysine/laminin coating was placed in each well of a 24 well plate, and cells were plated on the cover glass at about 3×10^3 cells/well. After cell adhesion to the cover glass (about 2 hrs), the above-mentioned culture medium was changed to a culture medium containing each test substance (compound 1, final concentration 10 μM; compound 2, final concentration 10 μM; compound 3, final concentration 1 μM; compound 4, final concentration 10 μM) and the cells were cultured for 48 hrs. […]
A specimen fixed using an anti-neurofilament 200 antibody (manufactured by Sigma) that recognize neurofilaments, which are intermediate filaments specific to nerve cell, and a fluorescent secondary antibody (manufactured by Molecular Probes) reactive therewith was fluorescence stained and the stained cells were detected using a fluorescence microscope. […] The whole cell number (t) of each image was counted. Along therewith, the length of cell neurite and the diameter of cell body were measured using an image analysis software (MacSCOPE, manufactured by MITANI CO.), and the cells having a neurite with a length of not less than twice the diameter of the cell body were counted as neuritogenetic cell (a). Then the rate (%) of the total neuritogenetic cell number (a1+a2+ . . . +an=Σa) to the total cell number (Σt) was calculated. […]

melting point [°C] | Compound | rate of the neuritogenetic cells relative to the total cells ([1]; final concentration 10 μM) | rate of the neuritogenetic cells relative to the total cells ([1]; final concentration 1 μM)
278.7 to 283.8 | COc1cc2nc(Cl)nc(Nc3ccc4[nH]ncc4c3)c2cc1OC [compound 1, 2-Chloro-6,7-dimethoxy-N-[5-1H-indazolyl]quinazoline-4-amine] | about 41% | –
– | Cl.Cl.Cl.Cl.O.c1ccc(CN2CCC(Nc3ccc4[nH]ncc4c3)CC2)cc1.c1ccc(CN2CCC(Nc3ccc4[nH]ncc4c3)CC2)cc1 [compound 2, N-(1-benzyl-4-piperidinyl)-1H-indazole-5-amine dihydrochloride.½ hydrate] | about 57% | –
– | C=C(C(=O)c1ccc(C=CC(=O)O)cc1)c1c(F)c(F)c(F)c(F)c1F [compound 3, 4-[2-(2,3,4,5,6-Pentafluorophenyl)acryloyl]cinnamic acid] | – | about 51%
– | O=S(=O)(c1cccc2cnccc12)N1CCCNCC1 [compound 4, Fasudil hydrochloride] | about 70% | –
